Laboratory results from US20060019936A1 (priority 2004, published 2006).
Entries after “also recorded” stand apart in the source; their conditions may differ.

Tests used:
LNCaP cells [1] = assay type: cell-based, human; conditions: LNCaP cells, single agent
[2] = test system: human colon adenocarcinoma cell line DLD-1; assay: DLD-1 xenograft in nude mice; assay type: in vivo
[3] = test system: LNCaP cells grown as a xenograft; assay: LNCaP xenograft in nude mice; assay type: in vivo; conditions: seven weekly five-day cycles of 30 mg/kg IP
Description: The efficacy of 11β-dichloro was examined toward LNCaP cells grown as a xenograft in nude mice. […] Animals bearing LNCaP xenografts were treated with seven consecutive weekly five-day cycles of 30 mg 11β-dichloro/kg administered via IP injection.
Animal Studies. Four to six week old NIH Swiss nu/nu athymic male mice (25 gm) were obtained from the National Cancer Institute-Frederick Cancer Center (Frederick, Md.). Experiments were carried out under guidelines of the MIT Animal Care Committee. Animals were injected subcutaneously in the right flank with 5×10^6 LNCaP cells suspended in a solution of 50% PBS/50% Matrigel (Collaborative Research, Bedford, Mass.). Therapy commenced when a palpable tumor of approximately 4×4 mm formed (n=5 per treatment group). The 11β-dichloro compound was dissolved in a vehicle composed of cremophor EL, saline and ethanol (43:30:27). Tumor dimensions were measured with vernier calipers. Tumor volumes were calculated using the formula: π/6×larger diameter×(smaller diameter)^2. Statistical analyses were performed using a paired t-test. At the end of the study period, animals were euthanized with CO2. At the time of sacrifice, blood samples were taken from several animals in each group for a complete blood count, along with serum chemistry and liver function analyses. A complete necropsy was also performed, including histopathology on two animals from each group.

4E-BP1 = assay: Phosphorylation status of 4E-BP1 in LNCaP cells; assay type: cell-based, human
[4] = test system: LNCaP, PC3 and DU145 cells; assay: Differential sensitivity of AR positive and AR negative cells; assay type: cell-based, human; conditions: dose of 10 μM
Description: AR positive LNCaP cells were 7-fold more sensitive than AR negative PC3 and DU145 cells at a dose of 10 μM. Investigations on similar molecules in which a ligand for the estrogen receptor (ER) was tethered to the same DNA damaging warhead, a similar (but slightly smaller) differential toxicity in favor of killing ER positive cells was observed.

LNCaP cells [5] = assay: Annexin V staining and flow cytometry; assay type: cell-based, human; conditions: treatment for 15 h
[6] = Pharmacokinetics / plasma levels in mice
p45 Skp2 = assay type: cell-based, human; conditions: LNCaP cells, 10 μM, up to 15 h
AR from LNCaP cells = molecular target: T1, AR from LNCaP cells (Homo sapiens, UniProt P10275, T878A); assay: Competitive binding assay for the AR (relative binding affinity); conditions: dihydrotestosterone RBA=100
T1 construct: Whole cell extracts prepared from LNCaP and T47D cells were used as sources of the AR and PR respectively; endogenous in cells; host or cells: LNCaP whole cell extract

p21 (WAF1/Cip1) = assay type: cell-based, human; conditions: LNCaP cells, 10 μM
liver DNA = assay: DNA adduct formation in liver of treated mice; assay type: in vivo; conditions: two hours post dosing
Description: A set of in vivo studies was performed to assess the stability and biodistribution of the 11β-dichloro compound in mice. These studies required formulation of the compound in a vehicle that would deliver the compound to the tissues following IP or IV administration. The vehicle was Cremophor EL:ethanol:saline (40:30:30 by volume). […] For 2 to 3 hours the compound was present above the […] concentration at which good differential toxicity in favor of killing LNCaP cells in culture was observed. There was also evidence that the intact molecule reached its intended biological target—cellular DNA.

p70S6K = assay: Phosphorylation status of p70S6K in LNCaP cells; assay type: cell-based, human; conditions: after addition to cells
LNCaP cells [7] = assay: Cell cycle analysis by flow cytometry; assay type: cell-based, human; conditions: LNCaP cells
c-Myc = c-Myc protein levels in LNCaP cells; assay type: cell-based, human
PARP = assay type: cell-based, human; conditions: 10 μM, LNCaP cells
[8] = test system: engineered estrogen receptor ligand binding domain-positive HeLa cell line; assay: ER ligand binding domain-positive HeLa xenograft in nude mice; assay type: in vivo
LNCaP cells [9] = assay type: cell-based, human
p27 (Kip1) = assay type: cell-based, human; conditions: LNCaP cells, 10 μM, up to 15 h
LNCaP cells [10] = assay: DNA fragmentation by agarose gel electrophoresis; assay type: cell-based, human; conditions: 10 μM, 24 h exposure

T1 sequence (P10275 whole entry T878A): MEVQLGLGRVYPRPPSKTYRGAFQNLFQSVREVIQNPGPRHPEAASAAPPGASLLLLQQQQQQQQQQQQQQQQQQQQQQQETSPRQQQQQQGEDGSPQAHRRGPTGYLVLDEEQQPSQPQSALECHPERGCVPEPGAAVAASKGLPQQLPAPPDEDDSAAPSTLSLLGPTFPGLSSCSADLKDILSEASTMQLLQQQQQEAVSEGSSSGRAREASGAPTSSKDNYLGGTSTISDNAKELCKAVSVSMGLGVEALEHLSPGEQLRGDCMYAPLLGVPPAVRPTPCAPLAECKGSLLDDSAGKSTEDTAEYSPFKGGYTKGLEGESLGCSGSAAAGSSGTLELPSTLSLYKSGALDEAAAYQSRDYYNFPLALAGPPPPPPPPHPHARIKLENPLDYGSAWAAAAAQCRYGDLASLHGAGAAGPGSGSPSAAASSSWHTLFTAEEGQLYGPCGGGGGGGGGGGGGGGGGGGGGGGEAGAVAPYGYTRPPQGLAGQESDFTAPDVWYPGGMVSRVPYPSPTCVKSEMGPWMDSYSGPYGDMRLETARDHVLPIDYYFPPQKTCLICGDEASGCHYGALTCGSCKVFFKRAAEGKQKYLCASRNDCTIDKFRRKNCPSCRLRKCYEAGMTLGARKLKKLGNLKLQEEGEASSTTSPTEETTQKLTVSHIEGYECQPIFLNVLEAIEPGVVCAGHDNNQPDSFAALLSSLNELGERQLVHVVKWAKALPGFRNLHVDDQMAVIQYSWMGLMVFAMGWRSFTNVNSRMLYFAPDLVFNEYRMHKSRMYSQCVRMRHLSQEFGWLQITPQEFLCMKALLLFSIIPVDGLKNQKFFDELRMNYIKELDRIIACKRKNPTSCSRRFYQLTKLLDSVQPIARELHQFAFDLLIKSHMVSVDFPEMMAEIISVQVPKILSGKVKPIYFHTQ

## CC12CC(CCCCCCNCCOC(=O)NCCCc3ccc(N(CCCl)CCCl)cc3)C3=C4CCC(=O)C=C4CCC3C1CCC2O (stereo not drawn) [Compound 11β-dichloro, 11β-{N-(2-(N-((N,N-bis-2-chloroethylaminophenyl)propyl)-carbamoyloxy)ethyl)aminohexyl}-17β-hydroxy-estra-Δ4(5),9(10)-3-one]
LNCaP cells [1]
  apoptotic response: LNCaP cells undergo apoptosis; also recorded: potent inducer of apoptosis and cell death; also recorded: activates an apoptotic response resulting in destruction of cells
[2]
  tumor growth of DLD-1 xenograft: Inhibition of tumor growth
[3]
  tumor growth of LNCaP xenograft: inhibition of tumor growth
4E-BP1
  phosphorylation of 4E-BP1: rapid disappearance of phosphate groups
[4]
  sensitivity of AR positive LNCaP cells relative to AR negative PC3 and DU145 cells: 7 fold
LNCaP cells [5]
  concentration showing increased Annexin V staining: > 5 µM
[6]; IP injection of radiolabeled compound, within 30 min
  plasma levels: 30 to 40 µM
[6]; at 1 hour, along with several minor unidentified metabolites
  intact compound in plasma by HPLC: lower concentrations
p45 Skp2
  levels of Skp2: decreased
AR from LNCaP cells
  RBA (Relative Binding Affinity) for the AR: 33
p21 (WAF1/Cip1)
  initial change in levels of p21: initially decreased
p21 (WAF1/Cip1); up to 15 h
  increase in level of p21: 9 fold
Liver DNA
  DNA adducts formed by the intact compound in liver: isolated from liver DNA of treated animals
p70S6K
  time to removal of the phosphate on Th389 of p70S6K: ≤ 30 min
LNCaP cells [7]
  cell cycle arrest: did not arrest cells in a specific point in the cell cycle
c-Myc
  levels of the c-Myc protein: decreased rapidly
PARP
  time to cleavage of PARP: ≤ 9 h
[8]
  tumor growth of ER-LBD-positive HeLa xenograft: Inhibition of tumor growth
LNCaP cells [9]
  changes in LNCaP cell shape: dramatic contraction and detachment
p27 (Kip1)
  levels of p27: increased
LNCaP cells [10]
  DNA fragmentation: DNA fragmentation occurs
